From US11639352B2, “Benzothiazole compounds for the treatment of autoimmune diseases” (Hoffmann-La Roche Inc., priority 2018, dated 2023) come the findings set out here.

The target of the assay is T1, human TLR8 (Homo sapiens, UniProt Q9NR97).
T1 sequence (Q9NR97 27-1041): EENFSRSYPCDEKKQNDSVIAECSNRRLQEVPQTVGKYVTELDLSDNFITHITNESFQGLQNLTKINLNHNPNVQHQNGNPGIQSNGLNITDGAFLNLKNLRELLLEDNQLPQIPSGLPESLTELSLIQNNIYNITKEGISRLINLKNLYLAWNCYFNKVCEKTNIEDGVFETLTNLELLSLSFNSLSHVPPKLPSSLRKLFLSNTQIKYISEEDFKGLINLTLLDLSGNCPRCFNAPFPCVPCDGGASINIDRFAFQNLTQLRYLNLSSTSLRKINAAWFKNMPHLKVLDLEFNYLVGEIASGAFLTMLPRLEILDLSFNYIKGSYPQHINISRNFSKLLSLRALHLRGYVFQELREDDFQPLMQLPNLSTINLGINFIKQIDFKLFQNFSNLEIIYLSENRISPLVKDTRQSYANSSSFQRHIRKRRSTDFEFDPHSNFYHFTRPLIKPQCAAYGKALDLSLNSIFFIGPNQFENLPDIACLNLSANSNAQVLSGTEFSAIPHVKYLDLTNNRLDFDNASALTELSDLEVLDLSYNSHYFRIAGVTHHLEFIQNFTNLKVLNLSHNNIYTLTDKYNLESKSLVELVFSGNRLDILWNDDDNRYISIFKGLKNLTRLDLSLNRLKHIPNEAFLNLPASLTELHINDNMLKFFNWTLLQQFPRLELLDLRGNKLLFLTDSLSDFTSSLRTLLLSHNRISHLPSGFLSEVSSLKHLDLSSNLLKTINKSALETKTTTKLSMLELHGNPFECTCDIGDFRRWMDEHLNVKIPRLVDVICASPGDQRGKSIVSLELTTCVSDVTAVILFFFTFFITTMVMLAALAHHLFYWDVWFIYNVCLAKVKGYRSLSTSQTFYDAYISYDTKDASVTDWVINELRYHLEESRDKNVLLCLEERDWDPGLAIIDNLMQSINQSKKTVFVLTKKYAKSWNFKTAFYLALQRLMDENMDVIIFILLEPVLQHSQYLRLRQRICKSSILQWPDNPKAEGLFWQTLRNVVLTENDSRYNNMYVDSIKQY
In words: HEK293-Blue-hTLR-8 cells assay (SEAP reporter, R848 stimulation). The settings on record: HEK293-Blue-hTLR8 cells, R848 ligand, 20 hrs incubation, antagonist. The class given is cell-based. The method, then:
The following tests were carried out in order to determine the activity of the compounds of formula (I) in HEK293-Blue-hTLR-7/8/9 cells assay.
HEK293-Blue-hTLR-8 Cells Assay:
A stable HEK293-Blue-hTLR-8 cell line was purchased from InvivoGen (Cat. #: hkb-htlr8, San Diego, Calif., USA). These cells were originally designed for studying the stimulation of human TLR8 by monitoring the activation of NF-κB. A SEAP (secreted embryonic alkaline phosphatase) reporter gene was placed under the control of the IFN-β minimal promoter fused to five NF-κB and AP-1-binding sites. The SEAP was induced by activating NF-κB and AP-1 via stimulating HEK-Blue hTLR8 cells with TLR8 ligands. Therefore the reporter expression was declined by TLR8 antagonist under the stimulation of a ligand, such as R848, for incubation of 20 hrs. The cell culture supernatant SEAP reporter activity was determined using QUANTI-Blue™ kit (Cat. #: rep-qb1, Invivogen, San Diego, Calif., USA) at a wavelength of 640 nm, a detection medium that turns purple or blue in the presence of alkaline phosphatase.
HEK293-Blue-hTLR8 cells were incubated at a density of 250,000˜450,000 cells/mL in a volume of 170 μL in a 96-well plate in Dulbecco's Modified Eagle's medium (DMEM) containing 4.5 g/L glucose, 50 U/mL penicillin, […], […], 2 mM L-glutamine, 10% (v/v) heat-inactivated fetal bovine serum with addition of 20 μL test compound in a serial dilution in the presence of final DMSO at 1% and 10 μL of 60 uM R848 in above DMEM, perform incubation under 37° C. in a CO2 incubator for 20 hrs. Then 20 μL of the supernatant from each well was incubated with 180 μL Quanti-blue substrate solution at 37° C. for 2 hrs and the absorbance was read at 620˜655 nm using a spectrophotometer. The signalling pathway that TLR8 activation leads to downstream NF-κB activation has been widely accepted, and therefore similar reporter assay was modified for evaluating TLR8 antagonist.
With `C[C@@H]1CN(c2ccc(C#N)c3ncsc23)C[C@H](CN2CCC3(CCCNC3)C2)O1` (stereo partly drawn) [Example 1, 7-[(2S,6R)-2-(2,9-diazaspiro[4.5]decan-2-ylmethyl)-6-methyl-morpholin-4-yl]-1,3-benzothiazole-4-carbonitrile], the IC50 (usually the point on the concentration scale where inhibition reaches its midpoint) was < 3 nM.
To `C[C@@H]1CN(c2ccc(C#N)c3ncsc23)C[C@H](CN2CCC(N)CC2)O1` [Example 2, 7-[(2S,6R)-2-[(4-amino-1-piperidyl)methyl]-6-methyl-morpholin-4-yl]-1,3-benzothiazole-4-carbonitrile] belongs 5 nM; to `C[C@@H]1CN(c2ccc(C#N)c3ncsc23)C[C@H](CN2CCC3(CCCNC3)CC2)O1` [Example 3, 7-[(2S,6R)-2-(2,9-diazaspiro[5.5]undecan-9-ylmethyl)-6-methyl-morpholin-4-yl]-1,3-benzothiazole-4-carbonitrile], 12 nM; to `C[C@@H]1CN(c2ccc(C#N)c3ncsc23)C[C@H](CN2CC3(CCCNC3)C2)O1` [Example 4, 7-[(2S,6R)-2-(2,8-diazaspiro[3.5]nonan-2-ylmethyl)-6-methyl-morpholin-4-yl]-1,3-benzothiazole-4-carbonitrile], 14 nM.
Next, `C[C@@H]1CN(c2ccc(C#N)c3ncsc23)C[C@H](CN2CCC3(CCNCC3)CC2)O1` [Example 5, 7-[(2S,6R)-2-(3,9-diazaspiro[5.5]undecan-3-ylmethyl)-6-methyl-morpholin-4-yl]-1,3-benzothiazole-4-carbonitrile]: 107 nM; `C[C@@H]1CN(c2ccc(C#N)c3ncsc23)C[C@H](CN2CCC3(CCNC3)CC2)O1` [Example 6, 7-[(2S,6R)-2-(2,8-diazaspiro[4.5]decan-8-ylmethyl)-6-methyl-morpholin-4-yl]-1,3-benzothiazole-4-carbonitrile]: 22 nM.
Take `C[C@@H]1CN(c2ccc(C#N)c3ncsc23)C[C@H](CN2CCC(N3CCCCC3)CC2)O1` [Example 7, 7-[(2R,6S)-2-methyl-6-[[4-(1-piperidyl)-1-piperidyl]methyl]morpholin-4-yl]-1,3-benzothiazole-4-carbonitrile]: the IC50 is < 3 nM.
Turning to `C[C@@H]1CN(c2ccc(C#N)c3ncsc23)C[C@H](CN2[C@@H]3CC[C@H]2C[C@@H](N)C3)O1` [Example 8, Endo-7-[(2S,6R)-2-[[(1R,5S)-3-amino-8-azabicyclo[3.2.1]octan-8-yl]methyl]-6-methyl-morpholin-4-yl]-1,3-benzothiazole-4-carbonitrile], the concentration for half-maximal inhibition (IC50) is < 3 nM.
Next, `C[C@@H]1CN(c2ccc(C#N)c3ncsc23)C[C@H](CN2[C@@H]3CC[C@H]2C[C@H](N)C3)O1` [Example 9, Exo-7-[(2S,6R)-2-[[(1S,5R)-3-amino-8-azabicyclo[3.2.1]octan-8-yl]methyl]-6-methyl-morpholin-4-yl]-1,3-benzothiazole-4-carbonitrile]: 8 nM; `C[C@@H]1CN(c2ccc(C#N)c3ncsc23)C[C@H](CN2CCC3(CCCN(C)C3)CC2)O1` [Example 10, 7-[(2R,6S)-2-methyl-6-[(2-methyl-2,9-diazaspiro[5.5]undecan-9-yl)methyl]morpholin-4-yl]-1,3-benzothiazole-4-carbonitrile]: < 3 nM.
In the case of `C[C@@H]1CN(c2ccc(C#N)c3ncsc23)C[C@H](C(=O)NC2CCN(C)CC2)O1` [Example 11, (2R,6R)-4-(4-cyano-1,3-benzothiazol-7-yl)-6-methyl-N-(1-methyl-4-piperidyl)morpholine-2-carboxamide], the IC50 is < 3 nM.
Turning to `C[C@@H]1CN(c2ccc(C#N)c3ncsc23)C[C@H](C(=O)NCC2CN(C)CCO2)O1` (stereo partly drawn) [Example 12, (2R,6R)-4-(4-cyano-1,3-benzothiazol-7-yl)-6-methyl-N-[(4-methylmorpholin-2-yl)methyl]morpholine-2-carboxamide], the concentration for half-maximal inhibition (IC50) is < 3 nM.
